Assay results as given in patent US20070161108A1, “Bob-1 specific T cells and methods to use” (priority 2004, published 2007).

Columns and labels:
Type in all cases: cell-based, human
[1] = tested on: HLA-A2-positive T2-cells; assay: Chromium release assay, CTLs from a patient with humoral immune defects stimulated with ILKDPVHGV (FIG. 2); details: 5-hour chromium release
Description: After several washing steps the CTLs, isolated from a patient with humoral immune defects and stimulated for an outgrowth of CTLs with specificity to the peptide ILKDPVHGV, were incubated with the labeled and peptide presenting T2-cells and the release of chromium is measured. Specific lysis depending on the different Peptides presented is indicated.
T-cells isolated from a patient with a humoral immune defect were peptide stimulated with the HIV derived peptide ILKDPVHGV and small doses of interleukin 2. Outgrowing CTLs were then tested in a 5-hour chromium release assay for their peptide specific lyses.
For this specific HLA-A2-positive T2-cells, which are a fusion between a B-cell and a T-cell having a TAP-transporter defect and therefore not being capable to present internal Bob-1 protein, were incubated with radioactive labeled chromium and different peptides. Subsequently, after several washing steps the outgrown CTLs were incubated with the labeled and peptide presenting T2-cells and the release of chromium is measured.

[2] = tested on: HLA-A2-positive T2 cells; assay: Chromium release assay, CTLs from a HIV patient stimulated with ILKDPVHGV (FIG. 1)
Description: After several washing steps the CTLs, isolated from a HIV patient and stimulated for an outgrowth of CTLs with specificity to the peptide ILKDPVHGV, were incubated with the labeled and peptide presenting T2-cells and the release of chromium is measured. Specific lysis depending on the different Peptides presented is indicated.
T-cells isolated from a HIV patient were peptide stimulated with the peptide ILKDPVHGV and small doses of interleukin 2. Outgrowing CTLs were then tested in a chromium release assay for their peptide specific lyses.
For this specific HLA-A2-positive T2-cells, which are a fusion between a B-cell and a T-cell having a TAP-transporter defect and therefore not being capable to present internal Bob-1 protein, were incubated with radioactive labeled chromium and different peptides. Subsequently, after several washing steps the CTLs were incubated with the labeled and peptide presenting T2-cells and the release of chromium is measured.

[3] = tested on: PBMC isolated from a patient with humoral immune defects; assay: ELISPOT assay to analyze cross-reactivity of induced CTL (FIG. 3a, 3b); details: PBMC stimulated with ILKDPVHGV (FIG. 3a) or FLKEPVKEL (FIG. 3b)
Description: The preferred T-cell analyzing assay was the ELISPOT assay, which has evolved to a standard assay for the detection of antigen-specific T-cells in immunology. ELISPOT assays were conducted using R5AB media consisting of RPMI 1640 medium with supplements and 5% human AB serum (Sigma-Aldrich, Steinheim, Germany). Both freshly isolated lymphocytes from peripheral blood (PBMC) or from lymph nodes and peptide stimulated PBMC were used. Nitrocellulose filter-backed microtiter plates (96 well; MAHA-S-4510, Millipore, Molsheim, Germany) were coated with 50 μl of interferon-γ antibody 1-D1K (Mabtech, Stockholm, Sweden) at a concentration of 10 μg/ml. After four washes with PBS and blocking with R5AB, 5×10^5 PBMC were added in 100 μl R5AB to the precoated wells in duplicate. Peptides were added directly to the wells at a final concentration of 40 μg/ml and the plates were incubated for 10 h at 37° C. in 5% CO2. After six washes with PBS containing 0.05% Tween 20 (PBS/T 0.05%), 100 μl biotinylated interferon-γ monoclonal antibody 7-B6-1 (Mabtech) was incubated at a final concentration of 2 μg/ml for 2 h at 37° C. in 5% CO2. After washing with 0.05% PBS/T, 10011 avidin/peroxidase solution (Vectastain ABC-Kit, Vector Laboratories, CA, USA) was added to each well. […] Spots were counted using a video-based automatic ELISPOT reader (AID Autoimmun Diagnostika, Strassberg, Germany).

[4] = tested on: T-cell lines from an HIV-2 infected patient; assay: gamma-interferon-ELISPOT-assay, T-cell lines from an HIV-2 infected patient (FIG. 12); details: PBMC stimulated by pool of 5 overlapping peptides aa151-210
Description: FIG. 12 Recognition of Bob-1 specific peptide aa171-190 by T-cell lines from an HIV-2 infected patient. PBMC from the patient had been stimulated by a pool of 5 overlapping peptides spanning aa151-210 of the Bob-1 sequence. Outgrowing cells were tested in a gamma-interferon-ELISPOT-assay of recognition of the peptide pool aa151-210 and of the individual peptides.

[5] = tested on: PBMC of a healthy person; assay: gamma-IFN-ELISPOT, in vitro stimulation of PBMC of a healthy person with peptide-loaded dendritic cells (FIG. 14); details: pool 1 or pool 4 presented by autologous dendritic cells
Excerpt: Given are the number of peptide-specific T-cells after stimulation of the pool 1-specific or the pool 4-specific cell lines with the respective pools and the indicated peptides. […] The T-cell lines had been generated by stimulation of peripheral blood mononuclear cells (PBMC) with five different pools containing each five 20 amino acid (aa) long peptides with a 10 amino acid long overlap, corresponding to aa 1 to aa 256 of the Bob-1 protein. The peptide pools were presented by autologous dendritic cells that had been generated by a standard protocoll (Berger T G, Feuerstein B, Strasser E, Hirsch U, Schreiner D, Schuler G, Schuler-Thurner B. Large-scale generation of mature monocyte-derived dendritic cells for clinical application in cell factories. Journal of immunological methods 2002, 268: 131-140). […] Therefore, it represents a model for an in vivo induction of a Bob-1 specific T-cell response.
For this, PBMC of a healthy person were stimulated—as described above—with autologous dendritic cells loaded with a selection of Bob-1 derived peptides. […]

Sequence | Specific lysis of peptide presenting T2 cells, recognition and cross-reactivity [1] | Specific lysis of peptide presenting T2 cells, cross-reactivity with ILKDPVHGV-specific CTLs [2] | Cross-reactivity of induced CTL in ELISPOT [3] | Recognition in gamma-interferon-ELISPOT [4] | Recognition by T-cell lines, or induction of Bob-1-specific T-cells, gamma-IFN-ELISPOT [5]
FLKEPVKEL [modified Bob-1 derived peptide] | high cross-reactivity | Cross-reactivity | strong cross-reactivity | – | –
QAPLTYFPWPQPLSTLPTST [peptide aa171-190] | – | – | – | specific recognition | specific recognition
